Experimental data: paper PMC2946321 (Bioorganic & medicinal chemistry, 2010)

Legend:
human D2(long) [1] = biological target: T1, human D2(long) (Homo sapiens, UniProt P14416); assay: Competitive radioligand binding, 125I-IABN, D2 dopamine receptors
human D2(long) [2] = biological target: T1, human D2(long); assay: Forskolin-dependent whole cell adenylyl cyclase inhibition assay; format: cell-based; settings: for effect on quinpirole inhibition of adenylyl cyclase: 10 nM test drug in presence of 10 nM quinpirole; for inhibition of forskolin-dependent cAMP accumulation: 10 nM, human D2long in HEK 293 cells, n = 4; for intrinsic efficacy category at D2 dopamine receptors: based on adenylyl cyclase assay
sigma-1 (σ1) receptors = sigma-1 (σ1) receptors (Cavia porcellus, UniProt Q60492); assay: Sigma-1 receptor binding, [3H]; design: species or system guinea pig; settings: read-out: Ki σ1
human D3 = human D3 (Homo sapiens, UniProt P35462); assay: Competitive radioligand binding, 125I-IABN, D3 dopamine receptors; settings: read-out: Ki D3
sigma-2 (σ2) receptors = biological target: T2, sigma-2 (σ2) receptors (Rattus norvegicus, UniProt Q5U3Y7); assay: Sigma-2 receptor binding, rat liver membranes; settings: read-out: Ki σ2
T2 sequence (Q5U3Y7 1-176): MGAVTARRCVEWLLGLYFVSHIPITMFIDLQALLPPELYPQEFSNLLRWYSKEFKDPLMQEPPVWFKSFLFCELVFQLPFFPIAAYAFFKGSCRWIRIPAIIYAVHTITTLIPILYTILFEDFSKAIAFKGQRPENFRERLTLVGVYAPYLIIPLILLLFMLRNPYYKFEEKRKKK

T1 sequence (P14416 whole entry): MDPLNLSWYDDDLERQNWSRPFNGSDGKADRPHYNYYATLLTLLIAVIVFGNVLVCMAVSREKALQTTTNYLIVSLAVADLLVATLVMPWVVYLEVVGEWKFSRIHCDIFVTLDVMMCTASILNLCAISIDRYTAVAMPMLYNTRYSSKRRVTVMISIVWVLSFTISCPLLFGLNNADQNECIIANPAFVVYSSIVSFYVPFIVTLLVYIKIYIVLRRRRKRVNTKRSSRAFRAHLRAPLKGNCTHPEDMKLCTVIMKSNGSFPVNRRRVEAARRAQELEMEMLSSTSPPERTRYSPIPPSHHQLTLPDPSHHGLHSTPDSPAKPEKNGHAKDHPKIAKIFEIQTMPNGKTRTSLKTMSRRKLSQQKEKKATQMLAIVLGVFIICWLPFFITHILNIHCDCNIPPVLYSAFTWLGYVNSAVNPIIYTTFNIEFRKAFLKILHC
human D3, sequence (P35462 whole entry): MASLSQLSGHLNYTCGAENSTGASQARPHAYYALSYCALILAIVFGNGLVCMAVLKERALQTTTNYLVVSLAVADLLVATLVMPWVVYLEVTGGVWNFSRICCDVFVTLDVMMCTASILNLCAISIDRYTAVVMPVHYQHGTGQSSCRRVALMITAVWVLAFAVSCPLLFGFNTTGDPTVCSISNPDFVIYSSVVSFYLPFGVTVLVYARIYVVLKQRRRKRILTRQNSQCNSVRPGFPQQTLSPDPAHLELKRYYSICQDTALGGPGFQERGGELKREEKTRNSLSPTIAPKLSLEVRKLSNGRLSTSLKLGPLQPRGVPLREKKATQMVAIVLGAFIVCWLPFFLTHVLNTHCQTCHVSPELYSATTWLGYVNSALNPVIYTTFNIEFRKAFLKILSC
sigma-1 (σ1) receptors, sequence (Q60492 whole entry): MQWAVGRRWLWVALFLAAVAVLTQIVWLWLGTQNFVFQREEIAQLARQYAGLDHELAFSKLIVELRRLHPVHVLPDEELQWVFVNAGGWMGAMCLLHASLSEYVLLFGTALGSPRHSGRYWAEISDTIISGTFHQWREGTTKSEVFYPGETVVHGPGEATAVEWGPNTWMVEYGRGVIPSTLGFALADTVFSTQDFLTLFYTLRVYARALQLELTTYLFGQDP

Compound	D3:D2 (Ki for D3 receptors/Ki for D2 receptors) (human D2(long) [1])	effect on quinpirole inhibition of adenylyl cyclase (human D2(long) [2])	inhibition of forskolin-dependent cAMP accumulation (human D2(long) [2])	intrinsic efficacy category at D2 dopamine receptors (human D2(long) [2])	Ki (sigma-1 (σ1) receptors)	Ki (human D3)	Ki (sigma-2 (σ2) receptors)	Ki (human D2(long) [1]; read-out: Ki D2)
CN1CN(c2ccccc2)C2(CCN(Cc3coc4ccccc34)CC2)C1=O.O=C(O)C(=O)O [Compound 25, 8-(Benzofuran-3-ylmethyl)-3-methyl-1-phenyl-1,3,8-triazaspiro[4.5]decan-4-one oxalate]	0.3	–	–	–	–	–	–	–
COc1ccc2[nH]cc(CN3CCC(O)(c4ccc(I)cc4)CC3)c2c1.O=C(O)C(=O)O [Compound 7, 4-(4-Iodophenyl)-1-((5-methoxy-1H-indol-3-yl)methyl)piperidin-4-ol oxalate]	–	able to attenuate the effect of quinpirole	no appreciable increase or decrease	neutral antagonists	–	–	–	–
COc1cccc2[nH]cc(CN3CCC(O)(c4ccc(I)cc4)CC3)c12.O=C(O)C(=O)O [Compound 6, 4-(4-Iodophenyl)-1-((4-methoxy-1H-indol-3-yl)methyl)piperidin-4-ol oxalate]	–	able to attenuate the effect of quinpirole	no appreciable increase or decrease	neutral antagonists	–	–	–	–
1-(Benzo[b]thiophen-2-ylmethyl)-4-(4-bromophenyl)piperidin-4-ol oxalate [Compound 20]	3.0	–	–	–	2.13 ± 0.44 nM	142 ± 27 nM	1960 ± 177 nM	46.8 ± 3 nM
